According to patent publication US20260258035A1, “FIVE-MEMBERED AND SIX-MEMBERED NITROGEN-CONTAINING COMPOUND, AND INTERMEDIATE, PREPARATION METHOD AND USE THEREOF” (HANGZHOU SYNRX THERAPEUTICS BIOMEDICAL TECHNOLOGY CO., LTD., priority 2022, published 2026):
Where two headings read alike, the source gives them in different places.

Tests used:
PARG = PARG (Homo sapiens, UniProt Q86W56); experiment: Biochemical assay (PARG, TFMU-ADPr substrate)
[1] = tested on: Human breast squamous carcinoma cells HCC1806; experiment: Cell function assay (In-Cell Western, PAR/pADPr after MMS); assay type: cell-based
Experimental: 2. Cell Function Assay (In-Cell Western)
• 1) Human breast squamous carcinoma cells HCC1806 (ATCC) were seeded to the 384-well plate (Corning, #3764) at 20,000 cells/well, incubated for 24 h in a CO2 (5%) incubator at 37° C. to allow for complete adherence of the cells; • 2) 120 nL compounds or DMSO were added to the 384-well plate by Echo 550 (LABCYTE, #550) (final concentrations of compounds: 30000 nM, 10000 nM, 3000 nM, 1000 nM, 300 nM, 100 nM, 30 nM, 10 nM, 3 nM, 1 nM, 0 nM), and then the cells were incubated for 1 h in a CO2 (5%) incubator at 37° C.; • 3) 40 nL MMS (methyl mesylate, Sigma, #129925)(final concentration: 0.5 mM) was added to the plate by Echo 550, and the cells were treated for 1 h in a CO2 (5%) incubator at 37° C.

HCC1806 = experiment: Cell viability assay (CellTiter-Glo); assay type: cell-based, Human; conditions: HCC1806, 7 days, CellTiter-Glo, read-out: IC50 (nM) in cell viability assay
[2] = 4 nM PARG, 66.2 uM TFMU-ADPr, 3 min at room temperature
[3] = HCC1806, In-Cell Western, MMS treatment, read-out: IC50 (nM) in cell function assay
[4] = HCC1806, compound 1 h then 0.5 mM MMS 1 h, PAR/pADPr antibody, In-Cell Western, read-out: IC50 (nM) in cell function assay

Chain of PARG (Q86W56 whole entry): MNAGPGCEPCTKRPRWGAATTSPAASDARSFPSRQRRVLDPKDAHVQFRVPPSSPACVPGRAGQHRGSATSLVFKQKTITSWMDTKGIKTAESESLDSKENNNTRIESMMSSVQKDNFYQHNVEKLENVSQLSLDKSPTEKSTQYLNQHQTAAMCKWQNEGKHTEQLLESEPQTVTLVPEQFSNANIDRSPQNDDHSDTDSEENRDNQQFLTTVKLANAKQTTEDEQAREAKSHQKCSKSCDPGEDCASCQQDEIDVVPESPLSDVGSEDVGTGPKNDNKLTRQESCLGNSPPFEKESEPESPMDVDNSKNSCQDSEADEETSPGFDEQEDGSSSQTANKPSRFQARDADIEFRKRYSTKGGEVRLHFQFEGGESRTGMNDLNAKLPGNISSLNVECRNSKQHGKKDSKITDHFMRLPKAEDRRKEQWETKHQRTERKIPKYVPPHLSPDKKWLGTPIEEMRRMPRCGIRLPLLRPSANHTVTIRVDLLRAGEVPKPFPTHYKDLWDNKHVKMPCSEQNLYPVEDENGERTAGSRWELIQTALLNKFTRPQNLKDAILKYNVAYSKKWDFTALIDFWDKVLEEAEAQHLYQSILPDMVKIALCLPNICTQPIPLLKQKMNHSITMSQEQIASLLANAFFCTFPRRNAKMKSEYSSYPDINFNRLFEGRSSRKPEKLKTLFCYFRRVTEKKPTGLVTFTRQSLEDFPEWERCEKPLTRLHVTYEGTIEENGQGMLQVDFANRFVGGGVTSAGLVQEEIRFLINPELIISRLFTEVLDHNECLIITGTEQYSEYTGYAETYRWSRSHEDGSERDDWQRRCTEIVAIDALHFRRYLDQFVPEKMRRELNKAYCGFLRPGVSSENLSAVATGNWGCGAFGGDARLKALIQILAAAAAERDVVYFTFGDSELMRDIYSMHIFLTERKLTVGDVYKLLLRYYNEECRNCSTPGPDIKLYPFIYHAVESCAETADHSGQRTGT

Row | Compound | IC50 (PARG; PARG, TFMU-ADPr substrate) | IC50 (HCC1806; Homo sapiens, HCC1806, 168 h) | also measured
1 | CC(C)C(=O)N1CCN(c2cc(S(=O)(=O)NC3(CF)CC3)cn3c(-c4nnc(C(F)F)s4)cnc23)CC1 [Example 14, 3-(5-(difluoromethyl)-1,3,4-thiadiazol-2-yl)-N-(1-(fluoromethyl)cyclopropyl)-8-(4-isobutyrylpiperazin-1-yl)imidazo[1,2-a]pyridine-6-sulfonamide] | 0.76 nM |  | IC50 (PARG; [2]): < 100 nM; IC50 [1, 3]: 2.01 nM; IC50 [1, 4]: < 100 nM
2 | N#CC1(NS(=O)(=O)c2ccc3c(C4CCC5(CNC5)C4)nc(-c4nnc(C(F)F)s4)n3c2)CC1 (centres unmarked) [Example 26, N-(1-cyanocyclopropyl)-3-(5-(difluoromethyl)-1,3,4-thiadiazol-2-yl)-1-(2-azaspiro[3.4]octan-6-yl)imidazo[1,5-a]pyridine-6-sulfonamide] | 5.37 nM |  | IC50 (PARG; [2]): < 100 nM; IC50 [1, 3]: 4690 nM; IC50 [1, 4]: > 1000 nM
3 | CC(C)C(=O)N1CCN(c2cc(S(=O)(=O)NC3(C#N)CC3)cc3c(-c4nnc(C(F)F)s4)cnn23)CC1 [Example 27, N-(1-cyanocyclopropyl)-3-(5-(difluoromethyl)-1,3,4-thiadiazol-2-yl)-7-(4-isobutyrylpiperazin-1-yl)pyrazolo[1,5-a]pyridine-5-sulfonamide] | 4.98 nM |  | IC50 (PARG; [2]): < 100 nM; IC50 ([1]; HCC1806, 1 h, read-out: IC50 (nM) in cell function assay): 100 to 500 nM; IC50 ([1]; HCC1806, read-out: IC50 (nM) in cell function assay): 76.3 nM
4 | CC(C)C(=O)N1CCN(c2cc(S(=O)(=O)NC3(CF)CC3)cn3c(-c4nnc(C(F)F)s4)ncc23)CC1 [Example 31, 3-(5-(difluoromethyl)-1,3,4-thiadiazol-2-yl)-N-(1-(fluoromethyl)cyclopropyl)-8-(4-isobutyrylpiperazin-1-yl)imidazo[1,5-a]pyridine-6-sulfonamide] | 0.84 nM |  | IC50 (PARG; [2]): < 100 nM; IC50 [1, 3]: 4.7 nM; IC50 [1, 4]: < 100 nM
5 | CC(C)C(=O)N1CCN(c2cc(S(=O)(=O)NC3CC3)cn3c(-c4nnc(C(F)(F)F)s4)nnc23)CC1 [Example 387, N-cyclopropyl-8-(4-isobutyrylpiperazin-1-yl)-3-(5-(trifluoromethyl)-1,3,4-thiadiazol-2-yl)-[1,2,4]triazolo[4,3-a]pyridine-6-sulfonamide] | 38 nM | 800 nM | 
6 | CC(C)C(=O)N1CCN(c2cc(S(=O)(=O)NC3(C)CC3)cn3c(-c4nnc(C(F)(F)F)s4)nnc23)CC1 [Example 388, 8-(4-isobutyrylpiperazin-1-yl)-N-(1-methylcyclopropyl)-3-(5-(trifluoromethyl)-1,3,4-thiadiazol-2-yl)-[1,2,4]triazolo[4,3-a]pyridine-6-sulfonamide] | 10 nM | 320 nM | 
7 | CC(C)C(=O)N1CC2(C=C(c3nc(-c4nnc(C(F)(F)F)s4)n4cc(S(=O)(=O)NC5(C#N)CC5)ccc34)CC2)C1 [Example 389, N-(1-cyanocyclopropyl)-1-(2-isobutyryl-2-azaspiro[3.4]oct-5-en-6-yl)-3-(5-(trifluoromethyl)-1,3,4-thiadiazol-2-yl)imidazo[1,5-a]pyridine-6-sulfonamide] | 20 nM | 2130 nM | 
8 | CC(C)C(=O)N1CCN(c2c(F)c(S(=O)(=O)NC3(C#N)CC3)cn3c(-c4nnc(C(F)(F)F)s4)ncc23)CC1 [Example 390, N-(1-cyanocyclopropyl)-7-fluoro-8-(4-isobutyrylpiperazin-1-yl)-3-(5-(trifluoromethyl)-1,3,4-thiadiazol-2-yl)imidazo[1,5-a]pyridine-6-sulfonamide] | 28.2 nM | 793 nM | 
9 | [2H]C([2H])([2H])OCC1CN(c2cc(S(=O)(=O)NC3(C)COC3)cn3c(-c4nnc(C(F)F)s4)nc(Cl)c23)CCN1 (centres unmarked) [Example 391, 1-chloro-3-(5-(difluoromethyl)-1,3,4-thiadiazol-2-yl)-8-(3-((methoxy-d3)methyl)piperazin-1-yl)-N-(3-methyloxetan-3-yl)imidazo[1,5-a]pyridine-6-sulfonamide] | 5.01 nM | 177 nM | 
10 | [2H]C([2H])([2H])OCC1CN(c2cc(S(=O)(=O)NC3(C)COC3)cn3c(-c4nnc(C(F)F)s4)ncc23)CCN1 (centres unmarked) [Example 392, 3-(5-(difluoromethyl)-1,3,4-thiadiazol-2-yl)-8-(3-((methoxy-d3)methyl)piperazin-1-yl)-N-(3-methyloxetan-3-yl)imidazo[1,5-a]pyridine-6-sulfonamide] | 11 nM | 132 nM | 
11 | CN1CC2CN(c3cc(S(=O)(=O)NC4(C)COC4)cn4c(-c5nnc(C(F)(F)F)s5)ncc34)CCN2C(=O)C12CC2 (centres unmarked) [Example 393, 8-(2′-methyl-4′-oxohexahydro-4′H,8′H-spiro[cyclopropane-1,3′-pyrazino[1,2-a]pyrazin]-8′-yl)-N-(3-methyloxetan-3-yl)-3-(5-(trifluoromethyl)-1,3,4-thiadiazol-2-yl)imidazo[1,5-a]pyridine-6-sulfonamide] | 5.75 nM | 222 nM | 
12 | CC1(NS(=O)(=O)c2cc(N3CCN4C(=O)NCC4C3)c3cnc(-c4nnc(C(F)(F)F)s4)n3c2)COC1 (centres unmarked) [Example 394, N-(3-methyloxetan-3-yl)-8-(3-oxohexahydroimidazo[1,5-a]pyrazin-7(1H)-yl)-3-(5-(trifluoromethyl)-1,3,4-thiadiazol-2-yl)imidazo[1,5-a]pyridine-6-sulfonamide] | 6.56 nM | 1700 nM | 
13 | C[C@H]1CN(c2cc(S(=O)(=O)NC3(C)COC3)cn3c(-c4nnc(C(F)F)s4)ncc23)C[C@H](CO)O1 [Example 396, 3-(5-(difluoromethyl)-1,3,4-thiadiazol-2-yl)-8-((2R,6S)-2-(hydroxymethyl)-6-methylmorpholino)-N-(3-methyloxetan-3-yl)imidazo[1,5-a]pyridine-6-sulfonamide] | 2.08 nM | 36.8 nM | 
14 | C[C@H]1CN(c2cc(S(=O)(=O)NC3(C)COC3)cn3c(-c4nnc(C(F)F)s4)ncc23)C[C@H](CN(C)C)O1 [Example 398, 3-(5-(difluoromethyl)-1,3,4-thiadiazol-2-yl)-8-((2S,6S)-2-((dimethylamino)methyl)-6-methylmorpholino)-N-(3-methyloxetan-3-yl)imidazo[1,5-a]pyridine-6-sulfonamide] | 27.5 nM | 992 nM | 
15 | COC1(C(=O)N2[C@@H](C)CN(c3cc(S(=O)(=O)NC4(C)COC4)cn4c(-c5nnc(C(F)F)s5)ncc34)C[C@@H]2C)CC1 [Example 399, 3-(5-(difluoromethyl)-1,3,4-thiadiazol-2-yl)-8-((3S,5S)-4-(1-methoxycyclopropane-1-carbonyl)-3,5-dimethylpiperazin-1-yl)-N-(3-methyloxetan-3-yl)imidazo[1,5-a]pyridine-6-sulfonamide] | 12.6 nM | 755 nM | 
16 | C[C@H]1CN(c2cc(S(=O)(=O)NC3(C)COC3)cn3c(-c4nnc(C(F)F)s4)ncc23)C[C@H](C)N1C [Example 400, 3-(5-(difluoromethyl)-1,3,4-thiadiazol-2-yl)-N-(3-methyloxetan-3-yl)-8-((3S,5S)-3,4,5-trimethylpiperazin-1-yl)imidazo[1,5-a]pyridine-6-sulfonamide] | 6.31 nM | 267 nM | 
17 | CC(=O)N1[C@@H](C)CN(c2cc(S(=O)(=O)NC3(C)COC3)cn3c(-c4nnc(C(F)F)s4)ncc23)C[C@@H]1C [Example 401, 8-((3S,5S)-4-acetyl-3,5-dimethylpiperazin-1-yl)-3-(5-(difluoromethyl)-1,3,4-thiadiazol-2-yl)-N-(3-methyloxetan-3-yl)imidazo[1,5-a]pyridine-6-sulfonamide] | 158 nM | 2800 nM | 
18 | C[C@H]1CN(c2cc(S(=O)(=O)NC3(C)COC3)cn3c(-c4nnc(C(F)F)s4)nc(Cl)c23)C[C@H](CO)N1 [Example 402, 1-chloro-3-(5-(difluoromethyl)-1,3,4-thiadiazol-2-yl)-8-((3R,5S)-3-(hydroxymethyl)-5-methylpiperazin-1-yl)-N-(3-methyloxetan-3-yl)imidazo[1,5-a]pyridine-6-sulfonamide] | 20.9 nM | 1840 nM | 
19 | COC[C@H]1CN(c2cc(S(=O)(=O)NC3(C)COC3)cn3c(-c4nnc(C(F)F)s4)nc(Cl)c23)C[C@H](C)N1 [Example 403, 1-chloro-3-(5-(difluoromethyl)-1,3,4-thiadiazol-2-yl)-8-((3R,5S)-3-(methoxymethyl)-5-methylpiperazin-1-yl)-N-(3-methyloxetan-3-yl)imidazo[1,5-a]pyridine-6-sulfonamide] | 21.9 nM | 458 nM | 
20 | COC[C@H]1CN(c2cc(S(=O)(=O)NC3(C)COC3)cn3c(-c4nnc(C(F)F)s4)ncc23)C[C@H](C)N1 [Example 404, 3-(5-(difluoromethyl)-1,3,4-thiadiazol-2-yl)-8-((3R,5S)-3-(methoxymethyl)-5-methylpiperazin-1-yl)-N-(3-methyloxetan-3-yl)imidazo[1,5-a]pyridine-6-sulfonamide] | 1.09 nM | 27 nM | 
21 | N-(1-cyanocyclopropyl)-8-(4-(oxetane-3-carbonyl)piperazin-1-yl)-3-(5-(trifluoromethyl)-1,3,4-thiadiazol-2-yl)imidazo[1,5-a]pyridine-6-sulfonamide [Example 294] | 12 nM |  | IC50 (HCC1806): 110 nM
